Data reported in patent publication US20070117743A1, “New antitumoral compounds” (priority 2003, published 2007).

How the values were obtained:
Format in all cases: cell-based, human
Conditions in all cases: 48 hours exposure
A-549 = experiment: SRB colorimetric assay of cell growth and viability, A-549
SK-MEL-28 = experiment: SRB colorimetric assay of cell growth and viability, SK-MEL-28
HT-29 = experiment: SRB colorimetric assay of cell growth and viability, HT-29
LoVo = experiment: SRB colorimetric assay of cell growth and viability, LoVo
LoVo-Dox = experiment: SRB colorimetric assay of cell growth and viability, LoVo-Dox
Procedure, shortened: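 Tumor cells are continuously exposed to sample for 48 hours, with vehicle DMSO:EtOH:PBS (0.5:0.5:99), after an 18-hour drug-free attachment period. Bound SRB, measured at 490 nm, reflects cell mass; GI, TGI and LC are derived from triplicate means.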

DU-145 = experiment: SRB colorimetric assay of cell growth and viability, DU-145
LNCaP = experiment: SRB colorimetric assay of cell growth and viability, LNCaP
Source text: The finality of this assay is to interrupt the growth of a “in vitro” tumor cell culture by means a continued exhibition of the cells to the sample to be testing.
This form of the assay employs 96 well cell culture microplates of 9 mm diameter (Faircloth, 1988; Mosmann, 1983). Most of the cell lines are obtained from American Type Culture Collection (ATCC) derived from different human cancer types.
Cells are maintained in RPMI 1640 10% FBS, supplemented with 0.1 g/l penicillin and 0.1 g/l streptomycin sulfate and then incubated at 37° C., 5% CO2 and 98% humidity. For the experiments, cells were harvested from subconfluent cultures using trypsin and resuspended in fresh medium before plating.
Cells are seeded in 96 well microtiter plates, at 5×10^3 cells per well in aliquots of 195 μL medium, and they are allowed to attach to the plate surface by growing in drug free medium for 18 hours. Afterward, samples are added in aliquots of 5 μL in a ranging from 10 to 10^−8 μg/mL, dissolved in DMSO:EtOH:PBS (0.5:0.5:99). After 48 hours exposure, the antitumor effect are measured by the SRB methodology: cells are fixed by adding 50 μL of cold 50% (wt/vol) trichloroacetic acid (TCA) and incubating for 60 minutes at 4° C. Plates are washed with deionized water and dried. One hundred μL of SRB solution (0.4% wt/vol in 1% acetic acid) is added to each microtiter well and incubated for 10 minutes at room temperature. Unbound SRB is removed by washing with 1% acetic acid. Plates are air dried and bound stain is solubilized with Tris buffer. Optical densities are read on a automated spectrophotometric plate reader at a single wavelength of 490 nm.
The values for mean+/− SD of data from triplicate wells are calculated. Some parameters for cellular responses can be calculated: GI=growth inhibition, TGI=total growth inhibition (cytostatic effect) and LC=cell killing (cytotoxic effect).

IGROV-1 = experiment: SRB colorimetric assay of cell growth and viability, IGROV-1
IGROV-ET = experiment: SRB colorimetric assay of cell growth and viability, IGROV-ET
HeLa = experiment: SRB colorimetric assay of cell growth and viability, HeLa
HeLa-APL = experiment: SRB colorimetric assay of cell growth and viability, HeLa-APL
K-562 = experiment: SRB colorimetric assay of cell growth and viability, K-562
PANC-1 = experiment: SRB colorimetric assay of cell growth and viability, PANC-1

C/C=C1\NC(=O)[C@H](Cc2ccccc2)NC(=O)[C@@H](C(C)C)NC(=O)[C@@H]([C@@H](C)CC)NC(=O)[C@H](NC(=O)[C@H](NC(=O)[C@H](CCCN)NC(=O)[C@H]2CCCN2C(=O)[C@H](NC(=O)[C@@H](NC(=O)[C@@H](NC(=O)[C@H](NC(=O)CCCC(C)C)[C@H](C)O)[C@@H](C)O)C(C)C)C(C)C)[C@@H](C)CC)[C@@H](C)OC(=O)[C@H](C(C)C)NC1=O [Compound 41, [D-Thr^13]-KF]
TGI A-549 (A-549): 2.72E−06 Molar
GI50 (A-549; read-out: GI50 A-549): 1630 nM
CC50 (A-549; read-out: LC50 A-549): 4530 nM
GI50 (SK-MEL-28): 1230 nM
TGI MEL-28 (SK-MEL-28): 2.20E−06 Molar
CC50 (SK-MEL-28; read-out: LC50 MEL-28): 3960 nM
TGI HT-29 (HT-29): 1.57E−06 Molar
GI50 (HT-29; read-out: GI50 HT-29): 730 nM
CC50 (HT-29; read-out: LC50 HT-29): 3410 nM
GI50 (LoVo): 155 nM
TGI LOVO (LoVo): 7.23E−07 Molar
CC50 (LoVo; read-out: LC50 LOVO): 2900 nM
GI50 (LoVo-Dox): 126 nM
TGI LOVO-DOX (LoVo-Dox): 2.53E−07 Molar
CC50 (LoVo-Dox; read-out: LC50 LOVO-DOX): 509 nM
GI50 (DU-145): 1000 nM
LC50 (concentration causing 50% net cell kill) (DU-145): 3730 nM
TGI DU-145 (DU-145): 1.93E−06 Molar
TGI LN-caP (LNCaP): 6.76E−06 Molar
GI50 (LNCaP; read-out: GI50 LN-caP): 2280 nM
CC50 (LNCaP; read-out: LC50 LN-caP): ≥ 6760 nM
GI50 (IGROV-1): 777 nM
LC50 (concentration causing 50% net cell killing) (IGROV-1): 3130 nM
TGI IGROV (IGROV-1): 1.56E−06 Molar
GI50 (IGROV-ET): 515 nM
TGI IGROV-ET (IGROV-ET): 1.35E−06 Molar
CC50 (IGROV-ET; read-out: LC50 IGROV-ET): 3160 nM
GI50 (HeLa): 1020 nM
TGI HELA (HeLa): 2.00E−06 Molar
CC50 (HeLa; read-out: LC50 HELA): 3940 nM
GI50 (HeLa-APL): 1240 nM
TGI HELA-APL (HeLa-APL): 2.15E−06 Molar
CC50 (HeLa-APL; read-out: LC50 HELA-APL): 3740 nM
GI50 (K-562): 5850 nM
TGI K-562 (K-562): 6.76E−06 Molar
CC50 (K-562; read-out: LC50 K-562): ≥ 6760 nM
GI50 (PANC-1): 2690 nM
TGI PANC-1 (PANC-1): 6.76E−06 Molar
CC50 (PANC-1; read-out: LC50 PANC-1): ≥ 6760 nM
